Results on 93 molecules are retold here after the SangsterLogP compilation.

Non-standard residues stand in square brackets, D forms with d. Residues, ends and D or L forms follow the SMILES beside them. ξ: configuration not given here. *: point of attachment. ξF = NC(Cc1ccccc1)C(=O)O; Cbz = O=C(OCc1ccccc1)*

A word on the logP: it is the decadic logarithm of the partition coefficient of the neutral form, usually between octanol and water. Broadly, the logD is lipophilicity at a set pH, counting ionised and neutral species. A higher logD goes with a more lipophilic compound.

The first data set is described as follows: method code SF, from Hansch, C. & Leo, A. (1987). Log P database [Dataset]. Pomona College Medicinal Chemistry Project.
Conditions: not given
For the molecule `CCCNCCC`, the logP was determined as 1.73.

`CCC(C)(C)C` registered a logP of 3.82.

For `NC(=O)c1ccsc1`, the logP was determined as 0.5.

Take `CCOC(=O)C(O)c1ccccc1` (stereo not drawn): the logP turned out to be 1.53.

Take `Cn1nnnc1SCc1ccccc1`: the logP is 1.63.

Take `O=S1(=O)NC(C2=CCCC2)=Nc2ccccc21`: the logP was 1.69.

For the molecule `CNc1ccccc1[N+](=O)[O-]`, the log partition coefficient (logP) came out at 2.18.

Turning to `O=NN1CCOCC1`, the logP was -0.3.

`CN(CCO)C1=C(N2CC2)C(=O)C(N(C)CCO)=C(N2CC2)C1=O` yielded a logP of -0.37.

As for `COc1ccc2[nH]c(C(O)C(O)c3nc4cc(OC)ccc4[nH]3)nc2c1` (stereo not drawn), the logP was determined as 1.05.

`CC=CC1=Nc2cc(Cl)ccc2S(=O)(=O)N1` registered a logP of 1.96.

With `O=[N+]([O-])c1ccc(O[C@@H]2O[C@H](CO)[C@@H](O[C@H]3O[C@H](CO)[C@@H](O)[C@H](O)[C@H]3O)[C@H](O)[C@H]2O)cc1`, the logP is -1.39.

The molecule `C/N=C/c1ccccc1` had a logP of 1.64.

In turn, `O=C(O)COc1ccc(Cl)c(Br)c1` registered a logP of 2.75.

In turn, `Cc1cc(C)cc(OC(=O)CNC(=O)c2ccccc2)c1` came in with a logP of 3.4.

On to `COc1ccc(Cn2ccnc2C=Cc2ccc([N+](=O)[O-])o2)cc1`, for which the logP came out at 1.37.

`ClCCOCCCl` yielded a logP of 1.29.

For `Cc1ccccc1OCC(O)CO` (stereo not drawn), the logP was determined as 1.41.

`CCC(=O)OCCOc1ccc(C=NO)cc1OC` yielded a logP of 1.52.

The molecule `CC(=O)C(=Cc1ccc(Cl)cc1)C(C)=O` showed a logP of 2.32.

With `CC(=O)Nc1cccc(N(C)C)c1`, the logP was 1.29.

`CN(C(=O)CCSC#N)c1ccc(S(=O)(=O)N(C)C)cc1` returned a logP of 0.84.

As for `COc1cc(O)cc(OC)c1`, the logP is 1.64.

`CCCOCCC(=O)N(C)c1ccc(S(=O)(=O)N(C)C)cc1` returned a logP of 1.26.

The molecule `CC(C)C1=Nc2cc(Cl)ccc2S(=O)(=O)N1` showed a logP of 2.

Take `Cc1csc(C=Cc2ccc([N+](=O)[O-])o2)n1`: the logP turned out to be 1.53.

Consider `COC(=O)[C@@]12OC[C@@]34[C@H](C[C@@H]5C(C)=C(O)C(=O)C[C@]5(C)[C@H]3C(O)C1O)OC(=O)C(OC(=O)C=C(C)C(C)C)[C@@H]42` (stereo partly drawn), for which the logP was found to be 1.66.

Regarding `NC(=O)C(F)(F)F`, the logP was 0.12.

With `CCOC(=O)c1ccc(NC(=O)C(F)(F)F)cc1`, the logP is 2.25.

On to `OCCOc1ccccc1`, for which the logP worked out at 1.16.

Molecule `CCCOCCC` returned a logP of 2.03.

`O=C(CCc1ccccc1)Nc1ccc(Cl)c(Cl)c1`: the logP is 4.85.

In turn, `O=C1OC(C2CCCCC2)c2ccccc21` (stereo not drawn) had a logP of 3.34.

`O=C(O)CS`: the logP was 0.09.

Molecule `CCOP(=O)(OCC)SCSCC` gave a logP of 2.07.

In turn, `CC(=O)Nc1ccccc1[N+](=O)[O-]` came in with a logP of 1.05.

`NC(=O)CCl`: the logP is -0.53.

For the molecule `N#CC(Cl)(Cl)Cl`, the logP came out at 2.09.

For the molecule `CNC(=O)C=C(C)OP(=O)(OC)OC`, the logP was -0.2.

`CCCCNP(=O)(OC)Oc1cc(Cl)c(Cl)cc1Cl` (stereo not drawn): the logP worked out at 4.18.

`NC(=O)c1ccc(F)cc1` displayed a logP of 0.91.

On to `CC(=O)OCC(=O)[C@@]12OC(C)(C)O[C@@H]1C[C@H]1[C@@H]3C[C@H](F)C4=CC(=O)C=C[C@]4(C)[C@@]3(F)[C@@H](O)C[C@@]12C`, for which the logP was 3.19.

`Cn1ccc(=O)c2ccccc21`: the logP came out at 0.44.

Take `Cc1ccc(Cl)cc1C`: the logP came out at 3.82.

With `CN(C)C(=O)c1cccs1`, the logP worked out at 0.75.

`CC(=O)Nc1ccc(S(C)(=O)=O)cc1` came in with a logP of 0.58.

As for `O=[N+]([O-])c1cccc(I)c1`, the logP stood at 2.94.

Molecule `CCC(C)C(=O)Nc1ccccc1` (stereo not drawn) had a logP of 2.56.

As for `CC(=O)OC[C@H]1O[C@@H](NC(=O)N(CCCl)N=O)[C@H](OC(C)=O)[C@@H](OC(C)=O)[C@H]1OC(C)=O`, the logP was determined as 1.04.

`CN(C)CC(CN1c2ccccc2Sc2ccccc21)N(C)C` (stereo not drawn): the logP amounted to 4.76.

Turning to `CC1CCC(=O)CC1`, the logP amounted to 1.38.

For `CC1=Nc2cc(Cl)ccc2S(=O)(=O)N1`, the logP amounted to 1.21.

As to `CC(=O)O[C@@H]1[C@@H](OC(C)=O)[C@H](OC(C)=O)CO[C@H]1NC(=O)N(CCCl)N=O`, the logP worked out at 1.05.

In turn, `O=C(O)c1cccc(CSc2ccccc2)c1O` showed a logP of 4.28.

Turning to `CCOC(=O)/C(=C/c1ccc(OC)c(OC)c1)C(C)=O`, the logP is 2.02.

As for `NC(=S)c1ccccc1N`, the logP stood at 0.99.

For the molecule `CC(=O)c1ccccc1O`, the logP was determined as 1.88.

`COC(=O)c1ccccc1NC(C)=O` showed a logP of 1.65.

For the molecule `COc1nnccc1N(C)C`, the logP amounted to 0.9.

With `CCc1ccc2c(c1)N=C(C)NS2(=O)=O`, the logP is 1.25.

In turn, `CCCCCCCNC(=O)c1ccccc1` returned a lipophilicity (logP) of 2.94.

In turn, `CC(C)[C@H](NC(=O)C(Cc1ccccc1)NC(=O)OCc1ccccc1)C(=O)O` (stereo partly drawn) (Cbz-[ξF]-Val-OH) registered a logP of 2.88.

On to `O=[N+]([O-])c1ccc(N2CCCCC2)cc1`, for which the logP was determined as 3.26.

Consider `CCOP(=O)(OCC)SCS(=O)CC` (stereo not drawn), for which the logP came out at 1.69.

As to `CNc1ccccn1`, the logP was 1.07.

As for `NC(=O)c1ccc(Cl)cc1`, the logP amounted to 1.53.

For `O=C1CCCN1CCOc1ccc([N+](=O)[O-])cc1`, the logP came out at 1.33.

`CSc1cccc(NC(C)=O)c1` had a logP of 2.14.

For the molecule `Nc1ncccn1`, the logP was -0.22.

`NC(=O)NN=CCCc1ccccc1` registered a logP of 2.32.

In the case of `Sc1ccccc1`, the logP stood at 2.52.

`CCOP(=S)(OCC)Oc1ccc(SC)cc1C` yielded a logP of 4.16.

In turn, `C=CCNC(=O)NCC=C` displayed a logP of 0.64.

Turning to `CCCOc1cn[nH]c1`, the logP was 1.42.

`CC(C)c1ccccc1SCc1c(O)c(C(=O)O)cc2ccccc12`: the logP came out at 5.06.

Turning to `Cc1ccc(C(=O)c2ccncc2)cc1`, the logP was 2.51.

The molecule `N#CC(C#N)=C(c1ccccc1)c1ccccc1` displayed a logP of 3.55.

In the case of `C=C(Cl)Cl`, the logP stood at 2.13.

As for `Cc1cc(COc2ccccc2C(C)C)c(O)c(C(=O)O)c1`, the logP is 4.91.

`c1nc[nH]n1`: the logP is -0.58.

Molecule `O=S(=O)(Nc1ccccc1)c1ccccc1` registered a logP of 2.58.

In turn, `O=C(Nc1ccccc1)NC(CO)(CO)CO` had a logP of 0.43.

As to `CN(C)Cc1ccco1`, the logP was 1.19.

As to `Cc1ccc(Nc2ccc(O)c3c2C(=O)c2ccccc2C3=O)cc1`, the logP stood at 3.12.

The data set is the same for the next values; noted with them: pH 2.0.
`O=C(O)c1ncccc1O` displayed a logD of -1.27.

The same data set, now with this note: pH 2.2.
Take `CCCc1c(OCCCCc2nnn[nH]2)ccc(C(C)=O)c1O`: the logD stood at 3.82.

Still in this data set, the particulars now being: pH 7.0.
For the molecule `NC(=O)c1ccco1`, the logD was -0.11.

The same data set, now with this note: pH 7.4.
Take `CC12CCC(=O)C=C1CCC1C2CCC2(C)C1CCC21CCC(=O)O1` (stereo not drawn): the logD was determined as 2.75.

The data set is the same for the next values; noted with them: pH 8.0.
The molecule `OC(c1ccccc1)c1ccccn1` (stereo not drawn) registered a log distribution coefficient (logD) of 1.52.

The data set is the same for the next values; noted with them: pH 11.0.
Turning to `CN(C)C=CCCc1cccnc1`, the logD was determined as 1.68.

The same data set, now with this note: pH 12.0.
Molecule `CCCCC1CC(C(=O)NC(C(C)Cl)C2OC(SC)C(O)C(O)C2O)N(CC)C1` (stereo not drawn) showed a logD of 3.21.

The data set is the same for the next values; noted with them: pH 13.0.
`NNc1ccc(Br)cc1`: the pH-dependent lipophilicity (logD) amounted to 1.39.

On to `CN[C@@H](C)Cc1ccccc1`, for which the logD was found to be 2.07.
